No end group written: not given here.
Key:
Design in all cases: species or system human
[1] = tested on: IgE of walnut-allergic patients' sera; assay: IgE binding to solid phase synthetic peptides (SPOTs analysis); settings: for number of patients' sera positive for the peptide: 20 individual patients' sera
Excerpt: The study was approved by the Human Subjects Review Committee at the University of California, Davis. Sera from 20 walnut-allergic patients with a convincing history of life-threatening systemic allergic reactions to walnuts, positive ImmunoCAP assays (Pharmacia, Inc., Diagnostics, Columbus, Ohio), and evidence of IgE against rJug r 1 (see below) were used in this study. Control sera were obtained from atopic patients with no history of walnut sensitivity, and one patient with life-threatening reactions to walnuts, positive ImmunoCAP assay, positive serum IgE immunoblot to walnut proteins, but negative for binding to the 2S albumin.
Based on the published amino acid sequence of Jug r 1 and our unpublished data determining the subunit cleavage sites,^6 twenty-five 13-amino acid peptides, offset by three amino acids, were synthesized which corresponded to the entire 64-amino acid length of the large subunit (FIG. 1A) and 26-amino acid length of the small subunit (FIG. 1B). Additional peptides bearing the target epitope (QGLRGEEMEEMV), SEQ ID NO:1, mutated forms of this peptide, and a non-IgE binding peptide (LSQRGLQSSSV), SEQ ID NO:6, were also synthesized. […] versions of the target peptide were created via a single site alanine substitution at each position along the amino acid sequence, and six mutated peptides were synthesized using multiple alanine substitutions, as shown in FIG. 6.
Peptides were synthesized on derivatized cellulose sheets using 9-fluorenlymethoxy carbonyl-derived (Fmoc) amino acids as described by the manufacturer (Genosys Biotechnologies, Inc., The Woodlands, Tex.). Briefly, cellulose membranes containing free hydroxy groups were esterfied with an Fmoc-amino acid dissolved in 1-methyl-2 pyrrolidione. The coupling reaction was followed by washing in N,N-dimethylformamide (DMF) and the amino acids were acetylated with acetic anhydride. The membranes were deprotected by washing in DMF and incubation with a solution of 20% piperidine in DMF followed by another wash in DMF. Coupling, acetylation, and deprotection steps were repeated for each cycle. During the final cycle, a mixture of dichloromethane, trifluoroacetic acid, and triisobutylsilane (1:1:0.05) was used to deprotect the acid-labile amino acid side chains.
(§1) The peptide-containing membranes were washed in TBS and incubated o/n at RT in blocking solution as directed by the manufacturer (Genosys Biotechnologies, Inc., The Woodlands, Tex.). Membranes were then washed in TBS-T for 10 min and incubated o/n at 4° C. with individual patient's serum or pooled patients' sera diluted 1:5 in blocking buffer (total sera:blocking buffer). This incubation was followed by three 5-min washes in TBS-T and an o/n (4° C.) incubation with ^125I-anti-human IgE (Hycor Biomedical Inc., Garden Grove, Calif.) diluted 1:10 in a mixture of PBS, 5% nonfat dry milk, and 0.05% Tween-20. Three final 10 min washes in PBS/0.05% Tween-20 were performed and IgE-peptide reactivity identified after a 48 hr exposure at −70° C. to Kodak Biomax x-ray film.

[2] = tested on: E1-specific IgE of patients' sera; assay: Inhibition by soluble epitope peptide of IgE binding to solid-phase E1 peptide
Experimental: as §1
A soluble form of an identified IgE-reactive peptide is (QGLRGEEMEEMV) was synthesized by Fmoc protocols on an automated peptide synthesizer (Model 433A, Applied Biosystems, Foster City, Calif.).
(§2) To test the specificity and reactivity of the epitope-specific IgE, control, pooled and fractionated patients' sera were pre-incubated o/n at 4° C. with different amounts (70, 7.0, and 0.7 μg) of the soluble epitope peptide, or a soluble non-specific peptide. […] Detection of IgE binding to the solid-phase synthetic peptides and dot-blotted rJug r 1 was detected using ^125I-anti-human IgE and ECL+, respectively, as described earlier.

[3] = tested on: patient serum IgE binding to rJug r 1; assay: Inhibition by soluble epitope peptide of IgE binding to dot-blotted rJug r 1
Experimental: For dot-blot assays, a graphite pencil was used to circumscribe 4 mm×8 mm elipses on a dry 0.4 μm NC membrane (Shleicher & Schuell; Keen, N.H.). The NC was incubated in distilled-deionized water (ddH2O) on a rocking table for 5 min and allowed to air dry before each dot was loaded with 0.11 μg of rJug r 1 in 2 μl of ddH2O. The antigen-loaded NC was then rinsed in ddH2O as described above, placed protein side up on 3MM paper (Whatman Intl. Ltd., Maidstone, England), and dried under a 60-watt light until all moisture was removed. […]
as §2

[4] = of the 20 patients tested, FIG. 4

| inhibition of IgE binding to rJug r 1, eluate (E1 epitope-specific) IgE fractions ([3]; 70 μg soluble peptide, affinity column purified IgE fractions) | inhibition of binding of IgE to the intact rJug r 1 ([3]; patients' IgE, soluble peptide) | Sequence | number of patients' sera positive for the peptide [1] | number of patients exhibiting moderate recognition of the epitope peptide [1, 4] | number of patients exhibiting strong recognition of the epitope peptide [1, 4] | number of patients exhibiting weak recognition of the epitope peptide [1, 4] | number of patients showing no recognition of the epitope peptide [1, 4] | inhibition of binding of E1-specific IgE to the solid phase epitope ([2]; 70 μg soluble peptide) | inhibition of IgE binding to solid-phase E1 peptide ([2]; 70, 7.0, 0.7 μg peptide pre-incubated with whole patients' sera, FIG. 5C) |
| --- | --- | --- | --- | --- | --- | --- | --- | --- | --- |
|  |  | LSQRSQQQCRQ [(−) peptide, reference compound] | none |  |  |  |  |  |  |
| Inhibition was again observed | did not completely inhibit | QGLRGEEMEEMV (not fully specified; listed as Juglans regia) [E1, solid-phase and soluble forms] | 15 | six | five | four | five | completely inhibit | Partial to complete inhibition |
